Literature values in patent publication US20170218035A1, “COMPOSITIONS AND METHODS FOR TREATMENT WITH HEMOPEXIN” (Bayer HealthCare LLC, priority 2014, published 2017).

Molecular target: T1, Hemopexin (plasma based glycoprotein) (Homo sapiens, UniProt P02790)
T1 sequence (P02790 24-462): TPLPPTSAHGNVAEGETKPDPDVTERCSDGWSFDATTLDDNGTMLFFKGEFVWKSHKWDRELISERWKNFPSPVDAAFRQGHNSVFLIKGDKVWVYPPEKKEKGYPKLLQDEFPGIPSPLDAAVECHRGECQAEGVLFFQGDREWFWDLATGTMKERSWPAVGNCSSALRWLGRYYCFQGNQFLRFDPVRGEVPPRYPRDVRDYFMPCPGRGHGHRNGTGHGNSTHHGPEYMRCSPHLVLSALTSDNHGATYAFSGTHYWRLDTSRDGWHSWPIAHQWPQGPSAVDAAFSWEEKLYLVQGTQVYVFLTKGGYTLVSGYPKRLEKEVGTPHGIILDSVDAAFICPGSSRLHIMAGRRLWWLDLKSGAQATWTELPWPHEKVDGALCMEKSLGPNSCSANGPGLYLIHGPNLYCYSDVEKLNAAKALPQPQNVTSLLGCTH
Conditions: highest known binding affinity for heme; reported value

SMILES: C=CC1=C(C)c2cc3[nH]c(cc4nc(cc5[nH]c(cc1n2)c(C)c5CCC(=O)O)C(CCC(=O)O)=C4C)c(C)c3C=C.[Fe] [heme]
- Kd: < 1 pM
